Reference: patent publication US12280026B2, “Use of repirinast in the prophylaxis or treatment of renal fibrosis or kidney disease” (ALGERNON PHARMACEUTICALS INC., priority 2018, dated 2025)
“Also recorded” adds a separate entry of the source. Marks after values point to notes of the source that are not given here.

Columns and labels:
[1] = system: C57BL/6 mice with UUO surgical ligation; experiment: Example 1: UUO mice, renal function evaluation (plasma BUN, creatinine); assay type: in vivo; conditions: Example 1; for Reduction in BUN compared to vehicle, significance in words: Bonferroni post-test, Suplatast Tosylate 60, Iguratimod 15, Lobenzarit 48, Actarit 60, Udenafil 40 mg/kg PO QD; for BUN in comparison to control groups, in words: UUO, male C57BL/6 mice, PO QD days 1-14, doses of Table 1
Experimental: (§1) Male 9-12 week old C57BL/6 mice of 23-25 grams body weight were used. All mice were acclimated for a minimum of 5 days prior to the start of the study and housed individually in microisolators throughout the study in a 12:12 light-dark cycle on a standard maintenance mouse chow diet (Harlan Teklad 2018) with food and water given ad libitum. Prior to surgery, all mice were weighed for baseline body weight.
(§2) The UUO surgical intervention was performed according to previously described methods known in the art (Le Meur Y et al., Macrophage accumulation at a site of renal inflammation is dependent on the M-CSF/c-fms pathway, J Leukocyte Biol., 72:530-537; 2002).
(§3) All mice were first anesthetized by intraperitoneal injection with a rodent cocktail (ketamine 10 mg/mL and Xyaline 1 mg/mL) in normal saline (10 μL/g body weight). Pedal reflex and movement of the vibrissae were used to determine the state of unconsciousness. A state of unconsciousness was confirmed after a period of about 5 minutes in all animals. All mice were then shaved on the left side of the abdomen. The shaved area was first swabbed with iodine and then swabbed with alcohol. A vertical incision was made through the skin with a #22 scalpel and the skin was then retracted. A further incision of about 2.5 cm was then made through the peritoneum avoiding any major blood vessels. The peritoneum was then retracted and the left kidney was exposed.
(§4) The left kidney was then brought to the surface by hooking the ureter directly beneath the kidney with sterile forceps and gently manipulating the kidney upward. The ureter was ligated at two points directly below the kidney with 5-0 surgical silk with excess suture cut away and discarded post-ligation. The kidney was then gently placed back to its correct anatomical position and the abdomen was lavaged with 1 mL sterile saline to replenish fluid loss. The peritoneum and then skin were sutured with 5-0 Mersilene, and the incision site was gently wiped with iodine. All mice were then placed individually in clean cages that were set on top of a thermal blanket until recovery at about 30-60 minutes later. In some examples, sham surgery was performed as a control by following all steps of the UUO surgical intervention procedure except ligation.
(§5) Following surgery, the mice were divided into 14 individual study groups of 8 mice each and, following post-surgical recovery, administered a once-daily oral treatment for 14 days. The mice in 12 of the 14 study groups (hereafter known as “treatment groups”) had all received the UUO surgical ligation and were treated individually with a distinct pharmacologic compound as set out in Table 1. The mice in 2 of the 14 study groups were treated individually with a pharmaceutically acceptable vehicle with no active ingredient. The pharmaceutically acceptable vehicle in all groups was 0.5% carboxymethyl cellulose (CMC). All mice were sacrificed with CO2 on post-surgical day 15.
(§6) The dose selected for the animal studies was determined by taking the maximum known human daily dose, dividing by the average weight of an adult (˜60-70 kg) to get a human mg/kg dose. Then that number was multiplied by 12 to convert to a mouse dose based on conventional dosing tables. See Nair and Jacob, J Basic Clin Pharm March 2016-May 2016, 7(2):27-31.
(§7) Serum collection: A blood sample was then collected from all mice and plasma analyzed for urea nitrogen and creatinine. Plasma was stored at −80° C. for possible future analysis.
(§8) Renal Function Evaluation: Renal function and disease progression was evaluated by BUN (blood urea nitrogen) as previously described. The BUN of each study group consisted of the BUN average of all mice in each study group.

[2] = Example 2: UUO mice, mean body weight change following surgery; assay type: in vivo, C57BL/6 mice; conditions: UUO, female C57BL/6 mice, PO QD days 1-14, mg/kg: Telmisartan 3, Bemithyl 200, Repirinast 30, Telmisartan+Bemithyl 3+200, Telmisartan+Repirinast 3+30, Cenicriviroc 40, Bromantane 40
Experimental: (§9) In this example, healthy young female C57BL/6 mice were used for the study. At the commencement of the study, mice were between 9-12 weeks of age, weighing 23-25 g. All the mice were obtained from Charles River Laboratories.
(§10) The mice were maintained in a controlled environment with a temp 70-72° F., humidity 30-70%, with a photo cycle of 12 hours of light and 12 hours of dark. They were provided with Harlan Teklad 2018 standard maintenance mouse chow diet and drinking water ad libitium.
(§11) After five days of acclimatization, the mice were grouped according to their body weight. There were ten groups of ten mice each. Nine groups of ten mice each underwent UUO as described above and the other group of ten mice underwent a sham procedure to serve as a no-surgery control.
(§12) Following surgery, the mice were divided into 10 individual study groups of 10 mice each and, following post-surgical recovery, administered a once-daily oral treatment for 14 days. The mice in 8 of the 10 study groups had all received the UUO surgical ligation and were treated individually with a distinct pharmacologic compound as set out in Table 6. The mice in 2 of the 10 study groups were treated individually with a pharmaceutically acceptable vehicle with no active ingredient. The pharmaceutically acceptable vehicle in all groups was 0.5% carboxymethyl cellulose (CMC). All mice were sacrificed with CO2 on post-surgical day 15.
as §6, with “That” for “Then that”
Body weight: The body weights were measured on days 1, 4, 7, 10 and 14 using a laboratory balance.
Body weights were measured on post-surgical days 1, 4, 7, 10 and 14 as previously described. The mean body weight change of each study group was calculated using the body weight average of all mice in each study group.

[3] = system: C57BL/6 mice with UUO surgical ligation; experiment: Example 2: UUO mice, kidney weight evaluation; assay type: in vivo; conditions: group mean, UUO, female C57BL/6 mice, PO QD days 1-14, mg/kg: Telmisartan 3, Bemithyl 200, Repirinast 30, Telmisartan+Bemithyl 3+200, Telmisartan+Repirinast 3+30, Cenicriviroc 40, Bromantane 40
Experimental: as §9, §10, §11, §12
as §6, with “That” for “Then that”
Kidney weight: The UUO was then examined in situ to ensure that the surgical ligation ties remained patent. Both the ligated (UUO) and non-ligated kidneys were removed for analysis. Weights of both kidneys were measured using a laboratory balance.
(§13) The data are presented as the mean obtained from Microsoft Excel or GraphPad Prism version 5.00 for Windows (GraphPad Software, San Diego California USA). Data were analyzed using two-way ANOVA using Bonferroni and Tamhane post-tests. Differences between groups were considered significant at p<0.05.
Kidney Weight Evaluation: Kidney weight, which indicates functional and pathological changes in the kidney, was evaluated by measuring the weight of both the ligated (UUO) and non-ligated kidneys as previously described. The ligated and non-ligated kidney weights of each study group consisted of the respective kidney weight averages of all mice in each study group.

[4] = system: C57BL/6 mice with UUO surgical ligation; experiment: Example 2: UUO mice, renal function evaluation (plasma BUN, creatinine); assay type: in vivo
Experimental: as §9, §10, §11, §12
as §6, with “That” for “Then that”
as §7, §13, §8

[5] = system: C57BL/6 mice with UUO surgical ligation; experiment: Example 2: UUO mice, renal fibrosis evaluation (Sirius Red histology score); assay type: in vivo
Experimental: as §9, §10, §11, §12
as §6, with “That” for “Then that”
(§14) Histopathology: Formalin-fixed kidney cross-section samples were subjected histopathological scoring with Sirius Red staining, and imaged at a magnification of ×20, using standard techniques. All three sections were stained and evaluated. The analysis was performed by a board-certified veterinarian pathologist. The presence of interstitial damage and severity score was assessed according to the following criteria: 0=normal; 1=light; 2=moderate; 3=severe.
as §13
Renal Fibrosis Evaluation: Renal fibrosis and interstitial damage was evaluated by histochemical staining of renal cross-sections with Sirius Red as previously described. The Histology Score of each study group consisted of the histology score average of all mice in each study group.

[6] = system: C57BL/6 mice with UUO surgical ligation; experiment: Example 1: UUO mice, renal fibrosis evaluation (Sirius Red histology score); assay type: in vivo; conditions: Bemithyl 200, Emoxypine 160, Suplatast Tosylate 60, Udenafil 40, Telmisartan 5 mg/kg PO QD
Experimental: as §1, §2, §3, §4, §5
The dose selected for the animal studies was determined by taking the maximum known human daily dose, dividing by the average weight of an adult (˜60-70 kg) to get a human mg/kg dose. […]
as §14, with “The analysis was performed by a board-certified veterinarian pathologist.” left out, “0=normal, 1=light, 2=moderate,” for “0=normal; 1=light; 2=moderate;”, “3=severe. […]” for “3=severe.”

[7] = Example 2, mg/kg PO QD: Telmisartan 3, Bemithyl 200, Repirinast 30, Telmisartan+Bemithyl 3+200, Telmisartan+Repirinast 3+30, Cenicriviroc 40, Bromantane 40

With CC(=O)Nc1ccc(CC(=O)O)cc1 [Actarit, (4-Acetamidophenyl)acetic acid] the “Reduction in BUN compared to vehicle, significance in words” value (from here on “Reduction in BUN … significance in words”) [1] was “significant reductions in BUN” and the “BUN in comparison to control groups, in words” value (shortened to “BUN in comparison”) [1] was “less renal dysfunction and disease progression than the positive control treatment; also recorded: decreased in comparison to the sham surgery control group”.
For CCCCOCCOc1ccc(-c2ccc3c(c2)/C=C(/C(=O)Nc2ccc([S@@+]([O-])Cc4cncn4CCC)cc2)CCCN3CC(C)C)cc1 [Cenicriviroc], the “Mean Body Weight Change Following Surgery, Day 1” value ([2]; Day 1) was 0 g, the “Mean Body Weight Change Following Surgery, Day 4” value ([2]; Day 4) was -0.30 g and the “Mean Body Weight Change Following Surgery, Day 7” value ([2]; Day 7) was -0.12 g. The “Mean Body Weight Change Following Surgery, Day 10” value ([2]; Day 10) was 0.18 g, the “Mean Body Weight Change Following Surgery, Day 14” value ([2]; Day 14) was 0.82 g and the “Drained Left Kidney” value ([3]; ligated kidney drained) was 0.1683 g. For the same compound, the “Excised Left Kidney” value ([3]; ligated kidney) was 0.4091 g, the “Right Kidney (g)” value ([3]; unligated kidney) was 0.1342* g and the “Level of BUN compared to vehicle or other agents, in words” value [4, 7] was “this reduction was not significant”. For the same compound, the BUN ([4]; plasma at sacrifice day 15, group mean, * significant vs vehicle Bonferroni, # Tamhane (p<0.05), UUO, female C57BL/6 mice, PO QD days 1-14, mg/kg: Telmisartan 3, Bemithyl 200, Repirinast 30, Telmisartan+Bemithyl 3+200, Telmisartan+Repirinast 3+30, Cenicriviroc 40, Bromantane 40) was 19.9 mg/dL, the Creatinine ([4]; plasma at sacrifice day 15, group mean, UUO, female C57BL/6 mice, PO QD days 1-14, mg/kg: Telmisartan 3, Bemithyl 200, Repirinast 30, Telmisartan+Bemithyl 3+200, Telmisartan+Repirinast 3+30, Cenicriviroc 40, Bromantane 40) was 0.21 mg/dL and the “Level of kidney fibrosis / histology score compared to vehicle or other agents, in words” value [5, 7] was “statistically insignificant improvements”. The “Histology Score” value ([5]; Sirius Red, 0=normal, 1=light, 2=moderate, 3=severe, group mean, UUO, female C57BL/6 mice, PO QD days 1-14, mg/kg: Telmisartan 3, Bemithyl 200, Repirinast 30, Telmisartan+Bemithyl 3+200, Telmisartan+Repirinast 3+30, Cenicriviroc 40, Bromantane 40) was 1.63*# and the “Reduction of fibrosis (%) (versus vehicle)” value ([5]; from histology score, UUO, female C57BL/6 mice, PO QD days 1-14, mg/kg: Telmisartan 3, Bemithyl 200, Repirinast 30, Telmisartan+Bemithyl 3+200, Telmisartan+Repirinast 3+30, Cenicriviroc 40, Bromantane 40) was 32%.
In the case of CCc1nc(C)ccc1O [Emoxypine, 2-Ethyl-6-methyl-3-hydroxypyridine], the “Kidney fibrosis / Histology Score, significance and comparison in words” value [6] is reported as “the same as the positive control treatment group; also recorded: significant reductions in kidney fibrosis; also recorded: significant reduction in fibrosis compared to vehicle” and the “BUN in comparison” value [1] is reported as “less renal dysfunction and disease progression than the positive control treatment”.
For CS(=O)(=O)Nc1cc2occ(NC=O)c(=O)c2cc1Oc1ccccc1 [Iguratimod, N-(7-(Methylsulfonamido)-4-oxo-6-phenoxy-4H-chromen-3-yl)formamide], the “Reduction in BUN … significance in words” value [1] was “significant reductions in BUN” and the “BUN in comparison” value [1] was “less renal dysfunction and disease progression than the positive control treatment; also recorded: decreased in comparison to the sham surgery control group”.
With O=C(O)c1ccccc1Nc1cc(Cl)ccc1C(=O)O [Lobenzarit, 2-[(2-Carboxyphenyl)amino]-4-chlorobenzoic acid] the “Reduction in BUN … significance in words” value [1] was “significant reductions in BUN” and the “BUN in comparison” value [1] was “less renal dysfunction and disease progression than the positive control treatment; also recorded: decreased in comparison to the sham surgery control group”.
For CCCOc1ccc(S(=O)(=O)NCCC2CCCN2C)cc1-c1nc(=O)c2c([nH]1)c(CCC)nn2C (stereo not shown) [Udenafil], the “Kidney fibrosis / Histology Score, significance and comparison in words” value [6] was “significant reductions in kidney fibrosis; also recorded: significant reduction in fibrosis compared to vehicle”, the “Reduction in BUN … significance in words” value [1] was “significant reductions in BUN” and the “BUN in comparison” value [1] was “less renal dysfunction and disease progression than the positive control treatment; also recorded: decreased in comparison to the sham surgery control group”.
